Source: patent publication US8609610B2, “Inhibitors of the trypsin-like site of the proteasome and methods of use thereof” (Trustees of Dartmouth College, priority 2011, dated 2013)

Columns and labels:
Experiment in all cases: ALAMAR BLUE cell viability assay
Assay type in all cases: cell-based
KMS-12-BM cells = conditions: then 48 h
Experimental: (§1) RPMI-8226 and NCI-H929 cells were cultured in RPMI-1640 supplemented with 10% fetal bovine serum, penicillin, streptomycin, and plasmocin in 5% CO2 humidified incubator. HEK-293T cells were cultured in DMEM containing 10% fetal calf serum, 10 units/mL penicillin, and 10 μg/mL streptomycin in a 7% CO2 humidified incubator. Viability of multiple myeloma cells was measured with ALAMAR BLUE mitochondrial dye conversion assay. Viability of peripheral blood mononuclear cells (PBMNCs) was measured using CELL TITER-GLO luminescent cell viability assay (Promega), which is based on quantification of ATP present in the cells. Caspase-3/7 activity was measured using APO-ONE 3/7 homogeneous assay (Promega).

RPMI-8226 cells = conditions: RPMI-8226, then 48 h
Experimental: as §1

KMS-18 cells = conditions: then 48 h
Experimental: as §1

NCI-H929 cells = conditions: NCI-H929, then 48 h
Experimental: as §1

MM1.R cells = conditions: LU-005 0.004 μM 1 h, then 48 h
Experimental: as §1

Q: What does the source list for `CC(C)C[C@H](NC(=O)[C@H](Cc1c(F)c(F)c(F)c(F)c1F)NC(=O)[C@H](Cc1ccccc1)NC(=O)[C@H](Cc1ccccc1)N=[N+]=[N-])C(=O)[C@@]1(C)CO1` [LU-005]?
A: Viability +NC-002 & NC-001 (KMS-12-BM cells; LU-005 0.037 μM 1 h): 50 ± 2 % control; Viability +NC-022 (KMS-12-BM cells; LU-005 0.037 μM 1 h): 90 ± 5 % control; Viability −NC-022 (KMS-12-BM cells; LU-005 0.037 μM 1 h): 89 ± 8 % control; Viability +NC-002 & NC-001 (KMS-12-BM cells; LU-005 0.33 μM 1 h): 2 ± 0 % control; Viability +NC-022 (KMS-12-BM cells; LU-005 0.33 μM 1 h): 12 ± 2 % control; Viability −NC-022 (KMS-12-BM cells; LU-005 0.33 μM 1 h): 80 ± 9 % control; Viability +NC-002 & NC-001 (KMS-12-BM cells; LU-005 1.0 μM 1 h): 1 ± 0 % control; Viability +NC-022 (KMS-12-BM cells; LU-005 1.0 μM 1 h): 1.5 ± 0.1 % control; Viability −NC-022 (KMS-12-BM cells; LU-005 1.0 μM 1 h): 27 ± 6 % control; Viability +NC-002 & NC-001 (RPMI-8226 cells; LU-005 0.037 μM 1 h): 76 ± 3 % control; Viability +NC-022 (RPMI-8226 cells; LU-005 0.037 μM 1 h): 104 ± 5 % control; Viability −NC-022 (RPMI-8226 cells; LU-005 0.037 μM 1 h): 109 ± 2 % control; Viability +NC-002 & NC-001 (RPMI-8226 cells; LU-005 0.33 μM 1 h): 4.6 ± 0.7 % control; Viability +NC-022 (RPMI-8226 cells; LU-005 0.33 μM 1 h): 31 ± 9 % control; Viability −NC-022 (RPMI-8226 cells; LU-005 0.33 μM 1 h): 94 ± 1 % control; Viability +NC-002 & NC-001 (RPMI-8226 cells; LU-005 1.0 μM 1 h): 1 ± 0 % control; Viability +NC-022 (RPMI-8226 cells; LU-005 1.0 μM 1 h): 6 ± 3 % control; Viability −NC-022 (RPMI-8226 cells; LU-005 1.0 μM 1 h): 10 ± 10 % control; Viability +NC-002 & NC-001 (KMS-18 cells; LU-005 0.037 μM 1 h): 79 ± 14 % control; Viability +NC-022 (KMS-18 cells; LU-005 0.037 μM 1 h): 104 ± 3 % control; Viability −NC-022 (KMS-18 cells; LU-005 0.037 μM 1 h): 108 ± 1 % control; Viability +NC-002 & NC-001 (KMS-18 cells; LU-005 0.33 μM 1 h): 33 ± 20 % control; Viability +NC-022 (KMS-18 cells; LU-005 0.33 μM 1 h): 106 ± 16 % control; Viability −NC-022 (KMS-18 cells; LU-005 0.33 μM 1 h): 108 ± 0 % control; Viability +NC-002 & NC-001 (KMS-18 cells; LU-005 1.0 μM 1 h): 8 ± 4 % control; Viability +NC-022 (KMS-18 cells; LU-005 1.0 μM 1 h): 29 ± 12 % control; Viability −NC-022 (KMS-18 cells; LU-005 1.0 μM 1 h): 88 ± 16 % control; Viability +NC-002 & NC-001 (KMS-18 cells; LU-005 3.0 μM 1 h): 1 ± 0.1 % control; Viability +NC-022 (KMS-18 cells; LU-005 3.0 μM 1 h): 24 ± 8 % control; Viability −NC-022 (KMS-18 cells; LU-005 3.0 μM 1 h): 72 ± 2 % control; Viability +NC-002 & NC-001 (KMS-18 cells; LU-005 9.0 μM 1 h): 0.8 ± 0.2 % control; Viability +NC-022 (KMS-18 cells; LU-005 9.0 μM 1 h): 17.5 ± 7.5 % control; Viability −NC-022 (KMS-18 cells; LU-005 9.0 μM 1 h): 45 ± 8 % control; Viability +NC-002 & NC-001 (NCI-H929 cells; LU-005 0.0014 μM 1 h): 50 ± 17 % control; Viability +NC-022 (NCI-H929 cells; LU-005 0.0014 μM 1 h): 77 ± 2 % control; Viability −NC-022 (NCI-H929 cells; LU-005 0.0014 μM 1 h): 97 ± 9 % control; Viability +NC-002 & NC-001 (NCI-H929 cells; LU-005 0.004 μM 1 h): 36 ± 14 % control; Viability +NC-022 (NCI-H929 cells; LU-005 0.004 μM 1 h): 69 ± 0 % control; Viability −NC-022 (NCI-H929 cells; LU-005 0.004 μM 1 h): 100 ± 13 % control; Viability +NC-002 & NC-001 (MM1.R cells): 26 ± 6 % control; Viability +NC-022 (MM1.R cells): 66 ± 1 % control; Viability −NC-022 (MM1.R cells): 102 ± 4 % control
